From patent US20110294992A1, “METAL RESPONSIVE MRI-AGENTS” (The Regents of the University of California, priority 2010, published 2011)
“And” between values parts separate entries of the source, which are not always exact repeats. Equal entries are not always repeated.

What was measured:
[1] = Relaxivity response to 1 equiv Cu+ in the presence of biologically relevant anions; type: physicochemical; conditions: for increase in r1 in response to Cu^+ / turn-on response to Cu^+: pH 7
Procedure: FIG. 7. Relaxivity responses of CG2 to 1 equiv Cu^+ in the presence of biologically relevant anions. White bars represent CG2 relaxivities without Cu^+ in the presence of various anions. Black bars represent CG2 relaxivities with Cu^+ in the presence of different anions. Percentages in the black bars are the % increases r1. Relaxivity measurements with HEPES, citrate (0.13 mM), lactate (2.3 mM), and HCO3^− (10 mM, 25 mM), were acquired at 37° C. in 20 mM HEPES buffer, pH 7, at a proton Larmor frequency of 60 MHz. Relaxivity measurements with PBS were acquired under similar conditions using phosphate buffered saline, pH 7.4.
We also tested the copper responses of CG2-6 in the presence of physiologically relevant concentrations of common biological anions (FIG. 7). […] Carboxylate-type anions, however, can affect relaxivity responses of Cu^+-bound CG2. Addition of citrate (0.13 mM) and lactate (2.3 mM) to CG2 results in turn-on responses to Cu^+ of 220% and 71% respectively. Carbonate concentrations also affect the response of CG2; the effect of carbonate was tested at 10 mM NaHCO3 (intracellular)^104 and 25 mM NaHCO3 (extracellular)^108 and gave increases in r1 in response to Cu^+ of 190% and 140% respectively. Although the relaxivity increases observed in the presence of anions are still well within a range detectable by MRI,^109 current work is geared toward developing CG-sensors with more carboxylate functionalities incorporated into the ligand framework to minimize anion sensitivity.^55,110

[2] = Kinetic stability to metal ion exchange monitored by LC/MS; type: physicochemical; conditions: 1 equiv of Cu^2+
[3] = Longitudinal relaxivity (r1) turn-on response to Cu+ from T1 measurements at 60 MHz; type: physicochemical; conditions: 1 equiv Cu^+, 20 mM HEPES buffer, pH 7, 37° C.
Procedure: (§1) The longitudinal relaxivity values for the CG contrast agents in the absence or presence of copper ions were determined using T1 measurements at 60 MHz. Studies were performed at 37° C. in 20 mM HEPES buffered to pH 7, and solutions of the purified CG sensors for relaxivity experiments contained 0.2 mM Gd^3+ as determined by ICP-OES. Spectroscopic data are collected in Table 1.
Upon addition of up to 1 equiv of copper ions, the relaxivity values of the CG contrast agents increase, establishing the ability of these probes to sense copper using the MR modality (Table 1, FIG. 3). CG2, CG3, CG4, and CG5 respond to Cu^+ with relaxivity increases ranging from 92% to 360%. […] These values represent the largest relaxivity enhancements observed to date for metal-activated MR contrast agents and a ca. 9-fold improvement in copper ion response compared to CG1 (41% increase). The observed differences in turn-on Cu^+ responses for benzyl-substituted CG4 (290% increase) versus methyl-substituted CG5 (92% increase) with the same pyridyl-thioether receptor show the marked effects that small peripheral substitutions can have on relaxivity properties.

[4] = Electrochemical Cu2+/Cu+ reduction potentials of copper-bound CG complexes; type: physicochemical; conditions: PBS buffer, pH 7.4
Procedure: CG6 is a unique member of the CG family that is equally responsive to both Cu^+ and Cu^2+. Addition of either Cu^+ or Cu^2+ to CG6 triggers a maximum 73% relaxivity turn-on from r1=2.2 mM^−1s^−1 to r1=3.8 mM^−1s^−1. […] On the other hand, copper-bound CG6, which responds to both Cu^+ and Cu^2+, has the least positive Cu^2+/Cu^+ reduction potential at +0.13 V.

[5] = Longitudinal relaxivity (r1) from T1 measurements at 60 MHz, absence of copper; type: physicochemical; conditions: no copper; 60 MHz, 20 mM HEPES buffer, pH 7, 37° C., 0.2 mM Gd^3+
Procedure: as §1
Nuclear magnetic relaxation dispersion (NMRD) experiments provide supporting evidence for this proposal (vide infra).

[6] = Metal ion selectivity of relaxivity response (competing metal ions alone or with added copper); type: physicochemical; conditions: relaxivity at 60 MHz, 20 mM HEPES, pH 7, 37° C.
Procedure: FIG. 6. Relaxivity responses of CG2 to various metal ions. White bars represent the addition of an excess of the appropriate metal ion (10 mM for Na^+, 2 mM for K^+, Mg^2+, and Ca^2+, and 0.2 mM for Fe^2+, Fe^3+, Cu^2+) to a 0.2 mM solution of CG2. Response to Zn^2+ was measured both at 0.2 mM Zn^2+ (Zn^2+1×) and 2 mM Zn^2+ (Zn^2+10×). Black bars represent the subsequent addition of 0.2 mM Cu^+ to the CG2 solution. Relaxivity measurements were acquired at 37° C. in 20 mM HEPES buffer, pH 7, at a proton Larmor frequency of 60 MHz.
The potential ability of this new family of CG sensors to sense bioavailable copper pools in either or both its predominant oxidation states represents a significant advance over the initial CG1 compound.

[7] = T1-weighted phantom magnetic resonance imaging at 1.5 T; conditions: 100 μM sensor with Cu^+ at 0, 10, 25, 50, 75, and 100 μM
Procedure: FIG. 10. A) T1-weighted phantom images of 100 μM CG2-6 in 20 mM HEPES pH 7 with and without 1 equiv Cu^n+. B) Phantom images of 100 μM CG2-6 with 0, 10, 25, 50, 75, and 100 μM [Cu(NCCH3)4]PF6. Images were acquired at 25° C. at 1.5 T (˜64 MHz proton Larmor frequency).
With spectroscopic data showing the turn-on relaxivity responses, binding properties, metal ion selectivities, and copper-induced changes in q values for this new series of CG contrast agents in hand, we next sought to test the ability of these sensors to detect changes in aqueous Cu^+ and/or Cu^2+ levels using MRI. […] In this context, chelatable copper pools have been identified in the mitochondrial matrix^22 and in the Golgi apparatus.^23 Moreover, the cerebrospinal fluid (CSF) contains micromolar levels of copper ions, most of which is not bound to ceruloplasmin due to the low concentrations of this protein in the CSF,^24,25 which may result in facile exchange between different copper binding ligands.^26

Compound: CCSCCN(CCSCC)Cc1cccc(CN2CCN(CC(=O)[O-])CCN(CC(=O)[O-])CCN(CC(=O)[O-])CC2)n1.[Gd+3] [CG2]
- increase in r1 in response to Cu^+ ([1]; 10 mM NaHCO3 (intracellular) in 20 mM HEPES): 190%
- increase in r1 in response to Cu^+ ([1]; 25 mM NaHCO3 (extracellular) in 20 mM HEPES): 140%
- turn-on response to Cu^+ ([1]; citrate (0.13 mM) in 20 mM HEPES, 1 equiv Cu^+): 220%
- turn-on response to Cu^+ ([1]; lactate (2.3 mM) in 20 mM HEPES, 1 equiv Cu^+): 71%
- increase in relaxivity in response to Cu^+ ([1]; phosphate buffered saline (PBS, 10 mM phosphate), pH 7.4, 1 equiv Cu^+): 350%
- metal ion exchange (kinetic stability) ([2]; 37° C., after 4 hours): No metal ion exchange was observed
- metal ion exchange (kinetic stability) ([2]; room temperature, after 7 days): No metal ion exchange was observed
- r1 (1 equiv Cu) [3]: 6.9 mM^−1s^−1 and 6.9^b mM^−1s^−1
- Cu^2+/+ E1/2 [4]: 0.46 V vs. SHE
- r1 (no Cu) [5]: 1.5 mM⁻¹ s⁻¹
- redox specificity of relaxivity response (Cu^+ vs Cu^2+) [6]: give turn-on relaxivity increases with Cu^+ but do not respond to Cu^2+
- visualization of copper level differences in phantom images [7]: can readily visualize differences in copper levels in a biologically relevant μM range
